Measurements reported in PMC7940615 (Scientific Reports, 2021).

Key:
[1] = blood of patients in both clinical studies; cited from earlier work
[2] = system: hospitalized COVID-19 patients; conditions: 1620 patients; total median dose of 136 mg, oral or IV once daily, 6 days; cited from earlier work
SARS-CoV-2 [3] = conditions: Vero E6 cells; famotidine 0.32–200 µM; remdesivir 0.1–62.5 µM
SARS-CoV-2 [4] = assay: Antiviral assay in human lung A549 cells (ACE2, TMPRSS2), immunofluorescence of nucleocapsid protein; assay type: cell-based; conditions: human lung A549 cells expressing ACE2 and TMPRSS2
SARS-CoV-2 [5] = assay: Viral RNA by qRT-PCR in culture medium of human lung A549 cells; assay type: cell-based
[6] = system: non-hospitalized patients; conditions: 10 non-hospitalized patients; oral 240 mg per day for a median of 11 days; cited from earlier work
SARS-CoV-2 [7] = assay: Antiviral assay in Vero E6 cells, immunofluorescence of nucleocapsid protein; assay type: cell-based; conditions: 72 h post infection; for IC50: immunofluorescence, MOI 0.1, read-out: IC50, inhibition of SARS-CoV-2 replication
SARS-CoV-2 [8] = assay: Viral RNA by qRT-PCR in culture medium of Vero E6 cells; assay type: cell-based
in vitro = conditions: human

Structure (SMILES)	peak plasma concentrations [1] [µM]	risk of death or intubation [2]	antiviral effect on virus yield (plaque formation) (SARS-CoV-2 [3])	inhibition of SARS-CoV-2 replication (in words) (SARS-CoV-2 [4]; 0.32–200 µM, 72 h)	effect on viral RNA copies (qRT-PCR, E gene) (SARS-CoV-2 [5])	patient-reported symptoms such as shortness of breath and cough [6]	inhibition of SARS-CoV-2 replication (in words) (SARS-CoV-2 [7]; concentrations of up to 200 μM)	effect on viral RNA copies (qRT-PCR, E gene) (SARS-CoV-2 [8])	cytotoxicity (in words) (human lung A549 cells)	cytotoxicity (in words) (Vero E6 cells)	IC50 (SARS-CoV-2 [4]; Severe acute respiratory syndrome coronavirus 2, immunofluorescence, 72 h post infection, MOI 0.1, read-out: IC50, inhibition of SARS-CoV-2 replication) [µM]	CC50 (in vitro) [µM]	IC50 (SARS-CoV-2 [7]; Severe acute respiratory syndrome coronavirus 2, Vero C1008, 72 h) [µM]	IC50 (SARS-CoV-2 [7]) [µM]
NC(N)=Nc1nc(CSCCC(N)=NS(N)(=O)=O)cs1 [Famotidine]	0.5 to 2	reduced risk of death or intubation	no effect on limiting virus plaque formation	no measurable effect	no effect	patient-reported improvements in symptoms	did not produce any measurable inhibition	no effect						
CCC(CC)COC(=O)[C@H](C)N[P@](=O)(OC[C@H]1O[C@@](C#N)(c2ccc3c(N)ncnn23)[C@H](O)[C@@H]1O)Oc1ccccc1 [Remdesivir, remdesivir]			dose-dependent antiviral effect		dose-dependent			dose-dependent	dose-dependent cytotoxicity at higher concentrations	dose-dependent cytotoxicity at higher concentrations	0.43	14.6	3.3	3.37
